This is an account of results in US20240262803A1, “COMPOUNDS, COMPOSITIONS AND METHODS OF TREATING DISORDERS” (Chungdu Anticancer Bioscience Ltd, priority 2021, published 2024).

What all share (type): cell-based
Experiment [1] concerns SW480. Kind of experiment: Minimal effective concentration that elicits polyploidy, SW480. Particulars: Homo sapiens, read-out: MECP: Minimal effective concentration that elicits polyploidy.
Experiment [2] concerns lung cancer cell line NCI-H23. The experiment can be described thus: MTT assay of cellular proliferation, NCI-H23. The following applies: Homo sapiens, read-out: EC50: Concentration that inhibits 50% of proliferation. In short, it runs like this:
(§1)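 EC50, the concentration halving proliferation, came from formazan absorbance at 570 nm after 3–4 h MTT incubation. Cells at 20–30% confluence were treated with drug over 1 nM–10 μM. The culture medium was DMEM plus 5% FBS, glutamine and pyruvate at 37° C.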

For experiment [3], the system named is colon cancer cell line SW460. Kind of experiment: MTT assay of cellular proliferation, SW460. Particulars: Homo sapiens, SW480; read-out: EC50: Concentration that inhibits 50% of proliferation. In short, it runs like this: as §1
On the technique in general: Tetrazolium dyes change colour on reduction, which living cells bring about.

Experiment [4] relates to RPEMYC^H2B-GFP cells. Kind of experiment: Mechanism-informed phenotypic screening assay (mitotic arrest, polyploidy; GE IN-Cell Analyzer 2000). Particulars: 20 nM to 20 μM, 24, 48 or 72 hours, read-out: Min. Effective conc. for polyploidy (≥5%). In short, it runs like this: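 Cells expressing Histone 2B-EGFP (RPEMYC^H2B-GFP) were plated 18-24 h before exposure to compounds at 20 nM to 20 μM. At 24, 48 or 72 h, imaging scored mitotic arrest or change in DNA content. Value is the lowest concentration giving polyploid accumulation at 48 h.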

The subject of experiment [5] is colon cancer cell line HCT116. Kind of experiment: Minimal effective concentration that elicits polyploidy, HCT116. Particulars: Homo sapiens, HCT-116, read-out: MECP: Minimal effective concentration that elicits polyploidy.
Experiment [6] relates to lung cancer cell line A549. Kind of experiment: Minimal effective concentration that elicits polyploidy, A549. The following applies: Homo sapiens, read-out: MECP: Minimal effective concentration that elicits polyploidy.
The test system of experiment [7] is lung cancer cell line A549. The experiment can be described thus: MTT assay of cellular proliferation, A549. Particulars: Homo sapiens, read-out: EC50: Concentration that inhibits 50% of proliferation. In short, it runs like this:
as §1

Experiment [8] deals with cervical cancer cell line Hela. Kind of experiment: MTT assay of cellular proliferation, Hela. Particulars: Homo sapiens, read-out: EC50: Concentration that inhibits 50% of proliferation. In short, it runs like this: as §1
Experiment [9] has as its system cervical cancer cell line Hela. The experiment can be described thus: Minimal effective concentration that elicits polyploidy, Hela. Particulars: Homo sapiens, read-out: MECP: Minimal effective concentration that elicits polyploidy.
The subject of experiment [10] is liver cancer cell line T2 HCC. The experiment can be described thus: Minimal effective concentration that elicits polyploidy, T2 HCC. The following applies: Mus musculus, read-out: MECP: Minimal effective concentration that elicits polyploidy.
The test system of experiment [11] is breast cancer cell line MDA-MB-231. The experiment can be described thus: MTT assay of cellular proliferation, MDA-MB-231. Particulars: Homo sapiens, read-out: EC50: Concentration that inhibits 50% of proliferation. In short, it runs like this:
as §1

For experiment [12], the system named is RPEMYC^H2B-GFP cells. Kind of experiment: Mechanism-informed phenotypic screening assay (mitotic arrest, polyploidy; GE IN-Cell Analyzer 2000). The following applies: 20 nM to 20 μM, 24, 48 or 72 hours, read-out: Mitotic Arrest (≥5%).
The subject of experiment [13] is gastric cancer cell line NCI-N87. Kind of experiment: MTT assay of cellular proliferation, NCI-N87. The following applies: Homo sapiens, read-out: EC50: Concentration that inhibits 50% of proliferation. In short, it runs like this:
as §1

Experiment [14] has the same test system. The experiment can be described thus: Minimal effective concentration that elicits polyploidy, NCI-N87. Particulars: Homo sapiens, read-out: MECP: Minimal effective concentration that elicits polyploidy.
Experiment [15] has as its system liver cancer cell line T2 HCC. Kind of experiment: MTT assay of cellular proliferation, T2 HCC. The following applies: Mus musculus, read-out: EC50: Concentration that inhibits 50% of proliferation. In short, it runs like this:
as §1

For experiment [16], the system named is colon cancer cell line HCT116. The experiment can be described thus: MTT assay of cellular proliferation, HCT116. Particulars: Homo sapiens, HCT-116, read-out: EC50: Concentration that inhibits 50% of proliferation. The procedure, abridged: as §1
Experiment [17] relates to breast cancer cell line MDA-MB-231. Kind of experiment: Minimal effective concentration that elicits polyploidy, MDA-MB-231. Particulars: Homo sapiens, read-out: MECP: Minimal effective concentration that elicits polyploidy.
In experiment [18] the test system is lung cancer cell line NCI-H23. The experiment can be described thus: Minimal effective concentration that elicits polyploidy, NCI-H23. The following applies: Homo sapiens, read-out: MECP: Minimal effective concentration that elicits polyploidy.

Each structure is given as a SMILES string. Where two headings read alike, the source gives them in different places.

For the compound `COC(=O)c1cc(OC)cc(Oc2nccnc2-c2cccnc2)c1` [Compound 52, methyl 3-methoxy-5-((3-(pyridin-3-yl)pyrazin-2-yl)oxy)benzoate], the minimal effective concentration is 0.001 to 1 µM in experiment [1]; 1 µM in [4]; 0.001 to 1 µM in [5]; 0.001 to 1 µM in experiment [6]; 0.001 to 1 µM in experiment [9]; 0.001 to 1 µM in experiment [10]. The minimal effective concentration in [12] was 1 µM; in experiment [14], 0.001 to 1 µM; in [17], 0.001 to 1 µM; in experiment [18], 0.001 to 1 µM. Moreover, the EC50 lay within 0.001 to 1 µM in experiment [2]; 0.001 to 1 µM in experiment [3]; 1 to 10 µM in experiment [7]; 0.001 to 1 µM in experiment [8]; 0.001 to 1 µM in experiment [11]; 0.001 to 1 µM in experiment [13]. Also, the EC50 in [15] and in experiment [16] was 0.001 to 1 µM in each case.

In the case of `COc1cc(OC)cc(Oc2ncccc2-c2ccncc2)c1` [Compound 14, 2-(3,5-dimethoxyphenoxy)-3,4′-bipyridine], the minimal effective concentration was 0.001 to 1 µM in experiment [1]; 1 µM in [4]; 0.001 to 1 µM in experiment [5]; 0.001 to 1 µM in [6]; 0.001 to 1 µM in [9]; 0.001 to 1 µM in experiment [10]. The minimal effective concentration was 1 µM in [12], 0.001 to 1 µM in [14], 0.001 to 1 µM in experiment [17] and 0.001 to 1 µM in experiment [18]. The EC50 in [2], in experiment [3], in experiment [7], in [8], in [11] and in experiment [13] was 0.001 to 1 µM in each case. Moreover, the EC50 in [15] and in experiment [16] was 0.001 to 1 µM throughout.

`CCOc1cc(Oc2ncccc2-c2ccnc(C)c2)cc(C(=O)NC)c1` [Compound 38, 3-ethoxy-N-methyl-5-((2′-methyl-[3,4′-bipyridin]-2-yl)oxy)benzamide]: the minimal effective concentration in experiment [1] is 0.001 to 1 µM; in experiment [4] it was 1 µM; in experiment [5] it was 0.001 to 1 µM; in [6], 0.001 to 1 µM; in experiment [9], 0.001 to 1 µM; in experiment [10] it was 0.001 to 1 µM. The minimal effective concentration in experiment [12] is 1 µM; in experiment [14], 0.001 to 1 µM; in experiment [17], 0.001 to 1 µM; in experiment [18], 0.001 to 1 µM. For the same compound, the EC50 in experiment [2], in experiment [3], in experiment [7], in [8], in experiment [11] and in [13] was 0.001 to 1 µM each time. In addition, the EC50 in experiment [15] and in experiment [16] was 0.001 to 1 µM in each case.

For `CNC(=O)c1cc(Oc2ncccc2-c2ccnc(C)c2)cc(OC(F)(F)F)c1` [Compound 39, N-methyl-3-((2′-methyl-[3,4′-bipyridin]-2-yl)oxy)-5-(trifluoromethoxy)benzamide], the minimal effective concentration in experiment [1] was 0.001 to 1 µM; in [4], 1 µM; in experiment [5], 0.001 to 1 µM; in experiment [6], 0.001 to 1 µM; in experiment [9], 0.001 to 1 µM; in experiment [10], 0.001 to 1 µM. The minimal effective concentration in [12] was 1 µM; in [14], 0.001 to 1 µM; in [17], 0.001 to 1 µM; in experiment [18] it was 0.001 to 1 µM. Besides, the EC50 in experiment [2], in experiment [3], in [7], in [8], in [11] and in experiment [13] was 0.001 to 1 µM throughout. Further, the EC50 in experiment [15] and in experiment [16] was 0.001 to 1 µM throughout.

In the case of `COc1cc(NC(C)=O)cc(Oc2ncccc2-c2ccnc(OC)c2)c1` [Compound 34], the minimal effective concentration in experiment [1] is 0.001 to 1 µM; in experiment [4] it was 1 µM; in experiment [5] it was 0.001 to 1 µM; in experiment [6], 0.001 to 1 µM; in [9] it was 0.001 to 1 µM; in [10], 0.001 to 1 µM. Moreover, the minimal effective concentration was 1 µM in experiment [12], 0.001 to 1 µM in experiment [14], 0.001 to 1 µM in [17] and 0.001 to 1 µM in [18]. Besides, the EC50 in experiment [2], in [3], in experiment [7], in [8], in experiment [11] and in experiment [13] was 0.001 to 1 µM throughout. Further, the EC50 in experiment [15] and in experiment [16] was 0.001 to 1 µM in each case.

As for `CNC(=O)c1cc(Oc2ncccc2-c2ccncc2)cc(C(F)(F)F)c1` [Compound 8, 3-([3,4′-bipyridin]-2-yloxy)-N-methyl-5-(trifluoromethyl)benzamide], the minimal effective concentration in experiment [1] is 0.001 to 1 µM; in experiment [4], 1 µM; in experiment [5], 0.001 to 1 µM; in [6], 0.001 to 1 µM; in [9] it was 0.001 to 1 µM; in [10], 0.001 to 1 µM. For the same compound, the minimal effective concentration is 1 µM in experiment [12], 0.001 to 1 µM in experiment [14], 0.001 to 1 µM in [17] and 0.001 to 1 µM in [18]. For the same compound, the EC50 in experiment [2], in [3], in experiment [7], in [8], in experiment [11] and in experiment [13] was 0.001 to 1 µM in each case. Further, the EC50 in experiment [15] and in experiment [16] was 0.001 to 1 µM each time.
